Columns and labels:
Format in all cases: in vivo
[1] = tested on: Abutilon theophrasti (ABUTH); assay: Post-emergence herbicidal action
Procedure: (§1) Seeds of monocotyledonous and dicotyledonous weeds and crop plants are placed in sandy loam in plastic or organic plant pots, covered with soil and cultivated in a greenhouse under controlled growth conditions. 2 to 3 weeks after sowing, the test plants are treated at the one-leaf stage. The compounds of the invention, formulated in the form of wettable powders (WP) or as emulsion concentrates (EC), are then sprayed onto the green parts of the plants as aqueous suspension or emulsion with addition of 0.5% additive at a water application rate of 600 l/ha (converted). After the test plants have been kept in the greenhouse under optimum growth conditions for about 3 weeks, the activity of the preparations is rated visually in comparison to untreated controls. For example, 100% activity=the plants have died, 0% activity=like control plants.
(§2) The abbreviations used here have the following meanings: • ABUTH Abutilon theophrasti • AMARE Amaranlhus retroflexus • CYPES Cyperus serotinus • ECHCGEchinocloa crus galli • LOLRI Lolium rigidum Gaudin • PHBPU Pharbitis purpurcum • SETVI Setaria viridis • VERPE Veronica persica • ALOMY Alopccurus myosuroides • AVEFA Avena fatua • DIGSA Digitaria sanguinalis • LOLMU Lolium multiflorum • MATIN Matricaria inodora • POLCO Polygonum convolvulus • STEME Stellaria media • VIOTR Viola tricolor
(§3) The compounds according to the invention were tested by the post-emergence and pre-emergence methods under the conditions described above for comparative purposes with the structurally closest compounds known from WO 2005/089551 A1 (D1).

Avena fatua (AVEFA) = assay: Post-emergence herbicidal action
Procedure: as §1, §2, §3

[2] = tested on: Echinochloa crus-galli (ECHCG); assay: Post-emergence herbicidal action
Procedure: as §1, §2, §3

[3] = tested on: Lolium multiflorum (LOLMU); assay: Post-emergence herbicidal action; settings: 80 g of a.i./ha, comparative test
Procedure: as §1, §2, §3

[4] = tested on: Matricaria inodora (MATIN); assay: Post-emergence herbicidal action
Procedure: as §1, §2, §3

[5] = tested on: Polygonum convolvulus (POLCO); assay: Post-emergence herbicidal action; settings: 320 g/ha, visual rating after about 3 weeks vs untreated controls, 100% = plants have died
Procedure: as §1, §2, §3

Setaria viridis (SETVI) [6] = assay: Post-emergence herbicidal action
Procedure: as §1, §2, §3

Stellaria media (STEME) [7] = assay: Post-emergence herbicidal action
Procedure: as §1, §2, §3

[8] = tested on: Amaranthus retroflexus (AMARE); assay: Post-emergence herbicidal action; settings: 320 g/ha, visual rating after about 3 weeks vs untreated controls, 100% = plants have died
Procedure: as §1, §2

[9] = tested on: Pharbitis purpurea (PHBPU); assay: Post-emergence herbicidal action; settings: 320 g/ha, visual rating after about 3 weeks vs untreated controls, 100% = plants have died
Procedure: as §1, §2

Veronica persica (VERPE) [10] = assay: Post-emergence herbicidal action; settings: 320 g/ha, visual rating after about 3 weeks vs untreated controls, 100% = plants have died
Procedure: as §1, §2

Viola tricolor (VIOTR) [11] = assay: Post-emergence herbicidal action; settings: 320 g/ha, visual rating after about 3 weeks vs untreated controls, 100% = plants have died
Procedure: as §1, §2

[12] = tested on: Alopecurus myosuroides (ALOMY); assay: Pre-emergence herbicidal action
Source text: as §2
(§4) Seeds of monocotyledonous and dicotyledonous weed plants and crop plants are placed in plastic or organic plant pots and covered with soil. The compounds of the invention, formulated in the form of wettable powders (WP) or as emulsion concentrates (EC), are then applied onto the surface of the covering soil as aqueous suspension or emulsion with addition of 0.5% additive at a water application rate of 600 l/ha (converted). After the treatment, the pots are placed in a greenhouse and kept under good growth conditions for the trial plants. After about 3 weeks, the effect of the preparations is scored visually in comparison with untreated controls as percentages. For example, 100% activity=the plants have died, 0% activity=like control plants.
as §3

[13] = tested on: Echinochloa crus-galli (ECHCG); assay: Pre-emergence herbicidal action
Source text: as §2, §4, §3

[14] = tested on: Matricaria inodora (MATIN); assay: Pre-emergence herbicidal action
Source text: as §2, §4, §3

[15] = tested on: Polygonum convolvulus (POLCO); assay: Pre-emergence herbicidal action
Source text: as §2, §4, §3

Setaria viridis (SETVI) [16] = assay: Pre-emergence herbicidal action
Source text: as §2, §4, §3

Stellaria media (STEME) [17] = assay: Pre-emergence herbicidal action
Source text: as §2, §4, §3

Viola tricolor (VIOTR) [18] = assay: Pre-emergence herbicidal action
Source text: as §2, §4, §3

[19] = tested on: Amaranthus retroflexus (AMARE); assay: Pre-emergence herbicidal action; settings: 320 g/ha, visual scoring after about 3 weeks vs untreated controls, 100% = plants have died
Source text: as §2, §4

Veronica persica (VERPE) [20] = assay: Pre-emergence herbicidal action; settings: 320 g/ha, visual scoring after about 3 weeks vs untreated controls, 100% = plants have died
Source text: as §2, §4

[21] = tested on: harmful plants such as Abutilon theophrasti, Alopecurus myosuroides, Amaranthus retroflexus, Avena fatua, Echinochloa crus-galli, Matricaria inodora, Pharbitis …; assay: Post-emergence herbicidal action, summary in text; settings: post-emergence treatment
Procedure: as §1
In this case, for example, in the post-emergence process, the compounds No. 1-001 and 111-001 have very good herbicidal activity (80% to 100% herbicidal action) against harmful plants such as Abutilon theophrasti, Alopecurus myosuroides, Amaranthus retroflexus, Avena fatua, Echinochloa crus-galli, Matricaria inodora, Pharbitis purpurea, Setaria viridis, Stellaria media, Veronica persica and Viola tricolor at an application rate of 0.32 kg of active substance or less per hectare. At the same time, some compounds according to the invention leave graminaceous crops such as barley, wheat, rye, millet/sorghum, maize, rice or sugarcane virtually undamaged when applied by the post-emergence method, even at high active compound dosages. Some substances are additionally also benign to dicotyledonous crops such as soya, cotton, oilseed rape or sugarbeet.

[22] = 80 g of a.i./ha, comparative test
[23] = 320 g/ha, visual rating after about 3 weeks vs untreated controls, 100% = plants have died
[24] = 320 g/ha, visual scoring after about 3 weeks vs untreated controls, 100% = plants have died

SMILES: FC(F)(F)c1cnn(-c2cc(C3CC3)nc(Oc3csc(C(F)(F)F)c3)n2)c1 [IV-001]
- Herbicidal action against ABUTH [1, 22]: 80%
- Post-emergence action ABUTH [1, 23]: 90%
- Herbicidal action against AVEFA (Avena fatua (AVEFA); [22]): 60%
- Post-emergence action AVEFA (Avena fatua (AVEFA); [23]): 80%
- Herbicidal action against ECHCG [2, 22]: 70%
- Post-emergence action ECHCG [2, 23]: 80%
- Herbicidal action against LOLMU [3]: 40%
- Herbicidal action against MATIN [4, 22]: 80%
- Post-emergence action MATIN [4, 23]: 90%
- Post-emergence action POLCO [5]: 90%
- Herbicidal action against SETVI (Setaria viridis (SETVI) [6]; [22]): 70%
- Post-emergence action SETVI (Setaria viridis (SETVI) [6]; [23]): 80%
- Herbicidal action against STEME (Stellaria media (STEME) [7]; [22]): 100%
- Post-emergence action STEME (Stellaria media (STEME) [7]; [23]): 100%
- Post-emergence action AMARE [8]: 100%
- Post-emergence action PHBPU [9]: 80%
- Post-emergence action VERPE (Veronica persica (VERPE) [10]): 100%
- Post-emergence action VIOTR (Viola tricolor (VIOTR) [11]): 90%
- Herbicidal action against ALOMY [12, 22]: 70%
- Pre-emergence action ALOMY [12, 24]: 100%
- Herbicidal action against ECHCG [13, 22]: 70%
- Pre-emergence action ECHCG [13, 24]: 100%
- Herbicidal action against MATIN [14, 22]: 90%
- Pre-emergence action MATIN [14, 24]: 100%
- Herbicidal action against POLCO [15, 22]: 20%
- Pre-emergence action POLCO [15, 24]: 80%
- Herbicidal action against SETVI (Setaria viridis (SETVI) [16]; [22]): 90%
- Pre-emergence action SETVI (Setaria viridis (SETVI) [16]; [24]): 90%
- Herbicidal action against STEME (Stellaria media (STEME) [17]; [22]): 90%
- Pre-emergence action STEME (Stellaria media (STEME) [17]; [24]): 100%
- Herbicidal action against VIOTR (Viola tricolor (VIOTR) [18]; [22]): 90%
- Pre-emergence action VIOTR (Viola tricolor (VIOTR) [18]; [24]): 90%
- Pre-emergence action AMARE [19]: 100%
- Pre-emergence action VERPE (Veronica persica (VERPE) [20]): 90%
- herbicidal action against harmful plants (in words) [21]: good herbicidal action
